From PMC11438102, “Modulation of cannabinoid receptor 2 alters neuroinflammation and reduces formation of alpha-synuclein aggregates in a rat model of nigral synucleinopathy” (Journal of Neuroinflammation, 2024)

Key:
[1] = tested on: IBA1, CD68, CD163, MHCII in substantia nigra; experiment: Immunohistochemistry/immunofluorescence of immune cell markers in substantia nigra; format: in vivo; conditions: rat low cohort, 6 mg/kg i.p. daily 7 weeks, vs vehicle
Experimental: Brains were post-fixed in 4%PFA for 48 h and transferred to 30% sucrose and cut at 40 μm on a freezing microtome. In brief, endogenous peroxidase was quenched with 3% hydrogen peroxide, blocked with 8% normal serum, avidin (Vector Cat#SP-2001) and 0.1% Triton-X and incubated overnight at 4°C with biotin (Vectorlabs Cat#SP-2001), normal serum and primary antibodies specific for Asyn (Clone 4B12; BioLegend Cat# 807801, RRID: AB_2564730), pSer129 Asyn (Clone EP1536Y; Abcam Cat# ab51253, RRID: AB_869973), CD68 (Bio-Rad Cat# MCA341R, RRID: AB_2291300), MHCII (Bio-Rad Cat# MCA46GA, RRID: AB_567369), and CD163 (Bio-Rad Cat# MCA342A, RRID: AB_2074557). Tissue was incubated in appropriate biotinylated secondary antibodies (1:200), amplified with Vectastain ABC kit (Vectorlabs Cat#PK-6100) and developed with diaminobenzidine tablets or diaminobenzidine drop kit with nickel (Vector Cat#SK-4100) for CD68 immunostaining.
Tissue was blocked with 5% normal serum in TBS + 0.25% Triton-X and further incubated overnight at 4°C with primary antibodies specific for IBA1 (FUJIFILM Wako Pure Chemical Corporation Cat# 019-19741, RRID: AB_839504) and tyrosine hydroxylase (ImmunoStar Cat# 22941, RRID: AB_572268) to identify microglia in the substantia nigra or tyrosine hydroxylase (Millipore Cat# AB152, RRID: AB_390204) and Asyn (Clone 4B12; BioLegend Cat# 807801, RRID: AB_2564730) to evaluate accuracy of stereotaxic injection targets. Tissue was incubated in secondary antibodies conjugated to appropriate fluorophores for 2 h at room temperature and mounted tissue with Vectashield, an aqueous mounting media with DAPI (Vectorlabs Cat#H-2000).
IBA1-positive total immune cell counts and area of immunoreactivity (ir) were quantified using Nikon NIS elements software. Four fluorescent z-stacks of IBA1 stained nigra were collected from images of lesioned and non-lesioned nigra from targeted low cohort animals using a Nikon Eclipse 90i microscope and maximum project images were used for quantification. CD68-ir and CD163-ir was quantified from two to three microphotographs from each animal throughout the substantia nigra using ImageJ particle count analysis. Microphotographs of the nigra immunochemically stained for either Asyn, pSer129 Asyn and proteinase K-resistant Asyn were quantified using Image J (version 1.54f). Regions of Interest (ROIs) were drawn on two to three images throughout the nigra and optical density measurements collected and averaged for each animal. Measurements were normalized to the vehicle group so that data from all cohorts could be combined.

[2] = tested on: brain immune cells; experiment: Multicolor flow cytometry of brain immune cells (high cohort); format: in vivo, rat
Experimental: An additional cohort of rats (termed “high cohort”) was evaluated to determine effects of SMM-189 on immune cell populations in the brain, resident or infiltrating, and the periphery as measured by flow cytometry (Fig. 1). To ensure infiltrating peripheral immune cells, rats were stereotaxically injected with a higher titer of AAV2/5-human WT Asyn (4.6 × 10^12 vg/mL) and underwent an identical drug treatment timeline with animals sacrificed at 4 (SMM-189: n = 5; vehicle: n = 6) and 8 weeks (SMM-189: n = 7; vehicle: n = 7). At sacrifice, animals were deeply anesthetized with euthasol (i.p., 150 mg/kg) and rapid decapitation performed using a sharp guillotine. Brains were collected at endpoints, and brain immune cells isolated and evaluated using multicolor flow cytometry. Additionally, blood was collected at baseline, 4 and 8 weeks (SMM-189: n = 13; vehicle: n = 13) after stereotaxic surgery for PBMCs isolation to immunophenotype using flow cytometry and for plasma evaluation of SMM-189.
Brains were collected from animals in the high cohort at either 4 or 8 weeks after AAV2/5-human WT Asyn and brain immune cells were isolated from individual hemispheres as previously described. Hemispheres were finely cut in RPMI 1640 media (Gibco Cat#11875-093) with a scalpel blade and enzymatically dissociated with collagenase VIII (1.4U/mL; Sigma Cat#C2139) and DNAse1 (1 mg/mL; Sigma Cat#DN25) in 37°C for 15 min. Enzymes were neutralized with 10%FBS (heat inactivated, Atlanta Biologicals Cat#S11150) in RPMI 1640 complete media and centrifuged 400g at room temperature. Tissue was resuspended in 1x HBSS and mechanically dissociated using a fire-polished Pasteur pipette until a cell suspension was generated. The suspension was passed through a 70µM cell strainer and strainers rinsed twice with 1x HBSS. To remove myelin, the strained suspension was centrifuged at 300g at 4 °C for 5 min and resuspended in 37% percoll and layered between 70% and 30% percoll gradients. The samples were centrifuged at 400g for 30 min at room temperature with the brake disabled. The top myelin layer was aspirated and demyelinated immune cells were collected from the 37% and 70% percoll interface with a pipette and washed with 1x HBSS twice, resuspended in PBS and placed in a 96-well v-bottom plate for flow cytometry staining.
Peripheral and central immune cell staining was performed similarly as previously published protocols. In brief, immune cells were washed and resuspended in PBS, then incubated for 30 min at room temperature in LIVE/DEAD Fixable Red Dead cell stain (ThermoFisher Scientific Cat#L23102; 1:2000). Following two washes in PBS, Fc receptors were blocked with anti-rat CD32 Fc block diluted 1:100 in FACS buffer (1mM EDTA and 0.1% sodium azide in PBS) for 15 min at 4°C. PBMCs were stained for separate myeloid and lymphoid panels and brain immune cells stained with an antibody panel to identify microglia, monocytes and lymphocytes (Table S1-S3). Fluorophore conjugated antibodies diluted with FACS buffer were incubated at 4 °C for 20 min. Cells stained for surface myeloid markers were fixed in 1% PFA for 25 min and washed in FACS.
PBMCs stained with lymphoid panel were further probed intracellularly for transcriptional marker Foxp3 to label […] T cells. […] Then washed and resuspended in FACs buffer. All samples had 10uL of AccuCheck Counting beads (ThermoFisher Cat#PCB100) added to final suspension and cells were run on a LSRII Instrument (BD Biosciences, Franklin Lakes, NJ) with FACSDiva software (BD Biosciences). Results were analyzed using FlowJo 10.8.1 software and brain immune populations of monocytes (classical and non-classical), lymphocytes (CD4 + and CD8+) or microglia and PBMC populations defined by specific strategies (Figure S1-S3). […]

[3] = 4 weeks, high cohort, treatment effect vs vehicle
[4] = 8 weeks, high cohort, treatment effect
[5] = 8 weeks, high cohort, vs control
[6] = 8 weeks, high cohort, vs vehicle

O=C(c1ccccc1)c1cc(O)c(-c2cc(Cl)cc(Cl)c2)c(O)c1 [SMM-189]
IBA1 counts and area in nigra, effect of treatment [1]: not a significant effect of treatment | intensity or area coverage of MHCII in the lesioned nigra [1]: No differences | nigral CD68-ir particle counts ([1]; AAV-injected nigra): increased | CD163 in the nigra ([1]; lesioned nigra): decreased | CD3+ lymphocytes parent population in brain ([2]; 4 weeks, high cohort): No CD3 + lymphocytes parent population differences | CD8 T cell frequencies in brain ([2]; 4 weeks, high cohort): not significantly different | MHCII MFI on microglia ([2]; 4 weeks, high cohort): no changes | classical or non-classical monocyte subset frequencies in brain ([2]; 4 weeks, high cohort): no treatment differences | frequency of microglia ([2]; 4 weeks, high cohort): no difference | frequencies of CD4+ T cells in brain ([2]; 4 weeks, high cohort, treatment effect): overall reduction | frequency of CD45hiCD11b myeloid/monocytes in brain [2, 3]: reduced | frequency of CD163+ macrophages in brain [2, 3]: reduced | MFI of CD11b on microglia ([2]; 4 weeks, unlesioned hemispheres, vs control): reduced | intensity of MHCII on microglia ([2]; 8 weeks, high cohort): no different | microglial MFI of CD11b [2, 4]: elevated | microglial MFI of CD172a [2, 4]: elevated | brain population frequency of lymphocytes (CD45+CD11b-) [2, 5]: did not affect | brain population frequency of macrophages (CD11b+CD163+) [2, 5]: did not affect | brain population frequency of microglia (CD45loCD11b+) [2, 5]: did not affect | brain population frequency of monocytes (CD45hiCD11b+) [2, 5]: did not affect | CD4+ lymphocytes in brain [2, 6]: increased | CD8+ lymphocytes in brain [2, 6]: decreased | frequency of MHCII+ classical (CD43-) monocytes in brain ([2]; 8 weeks, lesioned hemispheres, vs vehicle): elevated
